We go through one molecule from patent US7666836B2, “Method for the therapeutic management of endometriosis” (priority 1999, dated 2010).

Non-standard residues stand in square brackets, D forms with d. Residues, ends and D or L forms follow the SMILES beside them. dPhe(4-Cl) = N[C@H](Cc1ccc(Cl)cc1)C(=O)O; d2Nal = N[C@H](Cc1ccc2ccccc2c1)C(=O)O; dCit = NC(=O)NCCC[C@@H](N)C(=O)O; d3Pal = N[C@H](Cc1cccnc1)C(=O)O

Data set [1] relates to estradiol serum levels. In words: estradiol serum levels after weekly administration of cetrorelix (FIG. 2). It counts as in vivo. An excerpt: […] The estradiol serum levels are between about 35-80 pg/ml, preferably between about 45-75 pg/ml, more preferably between about 50-75 pg/ml.
Data set [2] deals with patients with endometriosis. Particulars: 3 mg s.c. per week over eight weeks; stages rAFS I-II; cited from earlier work.
For data set [3], the system named is patients with endometriosis. In words: weekly Cetrotide s.c. over eight weeks in endometriosis patients with symptomatic pain. Particulars: 3 mg s.c. per week over eight weeks. The data set is classed as in vivo, human. How it is done: Aim of the medicinal therapy of patients with endometriosis with symptomatic pain is to obtain a treatment without side effects, especially avoiding the negative effects of estrogen suppression and which is long-lasting after finishing therapy. The specific pharmacological mode of action of LHRH antagonists allows new possibilities for treatment of endometriosis.
The weekly administration of an adequate dose of an LHRH antagonist, e.g. 3 mg Cetrotide® s.c./per week over a period of eight weeks leads to a controlled suppression of estrogen secretion so that serum concentrations between about 35 pg/ml and about 80 pg/ml, preferably between about 45-75 pg/ml, more preferably between about 50-75 pg/ml are obtained. […] Also the development of osteoporosis can be avoided.

Data set [4] has as its system patients with confirmed endometriosis. In words: weekly Cetrorelix acetate treatment of nine patients with confirmed endometriosis (FIG. 1). Particulars: 3 mg s.c. weekly for 8 weeks; for hot flushes or other (estradiol) withdrawal symptoms: patients with endometriosis. The data set is classed as in vivo, human.

On to `CC(=O)N[C@H](Cc1ccc2ccccc2c1)C(=O)N[C@H](Cc1ccc(Cl)cc1)C(=O)N[C@H](Cc1cccnc1)C(=O)N[C@@H](CO)C(=O)N[C@@H](Cc1ccc(O)cc1)C(=O)N[C@H](CCCNC(N)=O)C(=O)N[C@@H](CC(C)C)C(=O)N[C@@H](CCCNC(=N)N)C(=O)N1CCC[C@H]1C(=O)N[C@H](C)C(N)=O` [Cetrorelix acetate] (Ac-[d2Nal][dPhe(4-Cl)][d3Pal]SY[dCit]LRP[dA]-NH2), for which the “estradiol serum levels (FIG. 2)” value in data set [1] (weekly dose of 1 mg once per week) lay in the range of 35 to 80 pg/mL. In data set [1] (weekly dose of 3 mg once per week), the “estradiol serum levels (FIG. 2)” value lay within 35 to 80 pg/mL. The “clinical regression of the disease (decrease of the implantation area)” value in data set [2] is given as “clinical regression of the disease”. Also, the symptomatic pain entry in data set [3] (all stages of the disease (rAFS I-IV)) was “effectively suppressed”. Also, the vegetative symptoms entry in data set [3] (serum concentration range about 35-80 pg/ml) was “no vegetative symptoms arise”. Moreover, in data set [4], the “proliferation of the endometrium at the end of treatment (histological biopsies)” value was “no proliferation of the endometrium” and the “hot flushes or other (estradiol) withdrawal symptoms” value is “avoiding any hot flushes or other withdrawal symptoms”. Also, in data set [4] (listed as Cetrorelix), the “proliferation of the endometrium at the end of treatment (histological biopsies)” value was “without proliferation of the endometrium” and the “hot flushes or other (estradiol) withdrawal symptoms” value is “without any signs of estradiol withdrawal symptoms”. Further, in data set [4] (nine patients), the ovarian cyst formation entry is reported as “No ovarian cyst formation occurred” and the “progress of the disease confirmed by 2nd look laparascopy” value is on record as “without any progress of the disease”.
